Experimental data published in US20210403443A1, “SUBSTITUTED 1,2,4-OXADIAZOLE, ITS APPLICATION AND A PHARMACEUTICAL PREPARATION COMPRISING IT” (SVENOX PHARMACEUTICALS LLC, priority 2018, published 2021).
Values after ≈ are worked out from the molar mass of the structure shown.

Key:
Test in all cases: microbe, parasite or virus in culture
Type in all cases: cell-based
Conditions in all cases: for MIC: Mycobacterium tuberculosis, 336 h, read-out: Minimum inhibiting concentration of substances with general formula I
[1] = tested on: M. tuberculosis MDR strain 9449/2007
[2] = tested on: M. tuberculosis MDR strain Praha 131
[3] = tested on: M. tuberculosis MDR strain 7357/1998
[4] = tested on: M. tuberculosis MDR strain 8666/2010
[5] = tested on: M. tuberculosis MDR strain Praha 4
[6] = tested on: M. tuberculosis MDR strain 234/2005
[7] = tested on: M. tuberculosis MDR strain Praha 1

Compound | Minimum inhibiting concentration of commonly used antibiotics and antituberculosis medicaments [1] | strain resistant or sensitive to the drug [1] | Minimum inhibiting concentration of commonly used antibiotics and antituberculosis medicaments [2] | strain resistant or sensitive to the drug [2] | Minimum inhibiting concentration of commonly used antibiotics and antituberculosis medicaments [3] | strain resistant or sensitive to the drug [3] | Minimum inhibiting concentration of commonly used antibiotics and antituberculosis medicaments [4] | strain resistant or sensitive to the drug [4] | Minimum inhibiting concentration of commonly used antibiotics and antituberculosis medicaments [5] | strain resistant or sensitive to the drug [5] | Minimum inhibiting concentration of commonly used antibiotics and antituberculosis medicaments [6] | strain resistant or sensitive to the drug [6] | Minimum inhibiting concentration of commonly used antibiotics and antituberculosis medicaments [7] | strain resistant or sensitive to the drug [7] | MIC [1] [µM] | MIC [2] [µM] | MIC [3] [µM] | MIC [4] [µM] | MIC [5] [µM] | MIC [6] [µM] | also measured
NNC(=O)c1ccncc1 [Isoniazid] | 58.3 R μmol · l^−1 | 58.3 R | 14.6 R μmol · l^−1 | 14.6 R | 14.6 R μmol · l^−1 | 14.6 R | 29.2 R μmol · l^−1 | 29.2 R | 14.6 R μmol · l^−1 | 14.6 R | 14.6 R μmol · l^−1 | 14.6 R | 14.6 R μmol · l^−1 | 14.6 R | – | – | – | – | – | – | –
O=[N+]([O-])c1cc(CSc2nc(-c3cccc(Cl)c3)no2)cc([N+](=O)[O-])c1 [Compound 5] | – | – | – | – | – | – | – | – | – | – | – | – | – | – | 1 (≈ 0.393 µg/mL) | 1 (≈ 0.393 µg/mL) | 1 (≈ 0.393 µg/mL) | 0.5 (≈ 0.196 µg/mL) | 0.5 (≈ 0.196 µg/mL) | 0.5 (≈ 0.196 µg/mL) | MIC [7]: 1 µM (≈ 0.393 µg/mL)
CC[C@@H](CO)NCCN[C@@H](CC)CO [Etambutol] | 9.8 C μmol · l^−1 | 9.8 C | 39.2 R μmol · l^−1 | 39.2 R | 19.6 R μmol · l^−1 | 19.6 R | 19.6 R μmol · l^−1 | 19.6 R | 19.6 R μmol · l^−1 | 19.6 R | 19.6 R μmol · l^−1 | 19.6 R | 39.2 R μmol · l^−1 | 39.2 R | – | – | – | – | – | – | –
CO[C@H]1/C=C/O[C@@]2(C)Oc3c(C)c(O)c4c(O)c(c(/C=N/N5CCN(C)CC5)c(O)c4c3C2=O)NC(=O)/C(C)=C\C=C\[C@H](C)[C@H](O)[C@@H](C)[C@@H](O)[C@@H](C)[C@H](OC(C)=O)[C@@H]1C [Rifampicin] | >9.7 R μmol · l^−1 | >9.7 R | >9.7 R μmol · l^−1 | >9.7 R | >9.7 R μmol · l^−1 | >9.7 R | >9.7 R μmol · l^−1 | >9.7 R | >9.7 R μmol · l^−1 | >9.7 R | >9.7 R μmol · l^−1 | >9.7 R | >9.7 R μmol · l^−1 | >9.7 R | – | – | – | – | – | – | –
Gentamicin | 1.05 C μmol · l^−1 | 1.05 C | >8.37 R μmol · l^−1 | >8.37 R | 1.05 C μmol · l^−1 | 1.05 C | 2.09 C μmol · l^−1 | 2.09 C | 0.52 C μmol · l^−1 | 0.52 C | 0.26 C μmol · l^−1 | 0.26 C | 1.05 C μmol · l^−1 | 1.05 C | – | – | – | – | – | – | –
O=[N+]([O-])c1cc(CSc2nc(-c3ccc(Cl)cc3)no2)cc([N+](=O)[O-])c1 [Compound 4] | – | – | – | – | – | – | – | – | – | – | – | – | – | – | 1 (≈ 0.393 µg/mL) | 1 (≈ 0.393 µg/mL) | 1 (≈ 0.393 µg/mL) | 0.5 (≈ 0.196 µg/mL) | 0.5 (≈ 0.196 µg/mL) | 0.5 (≈ 0.196 µg/mL) | MIC [7]: 2 µM (≈ 0.786 µg/mL)
NCC[C@H](O)C(=O)N[C@@H]1C[C@H](N)[C@@H](O[C@H]2O[C@H](CN)[C@@H](O)[C@H](O)[C@H]2O)[C@H](O)[C@H]1O[C@H]1O[C@H](CO)[C@@H](O)[C@H](N)[C@H]1O [Amikacin] | 0.43 C μmol · l^−1 | 0.43 C | >27.2 R μmol · l^−1 | >27.2 R | 0.85 C μmol · l^−1 | 0.85 C | 1.7 C μmol · l^−1 | 1.7 C | 0.85 C μmol · l^−1 | 0.85 C | 0.43 C μmol · l^−1 | 0.43 C | 0.43 C μmol · l^−1 | 0.43 C | – | – | – | – | – | – | –
[H]/N=C(/N)N[C@H]1[C@H](O)[C@@H](O)[C@H](O[C@@H]2O[C@@H](C)[C@](O)(C=O)[C@H]2O[C@@H]2O[C@@H](CO)[C@H](O)[C@@H](O)[C@@H]2NC)[C@@H](N/C(N)=N\[H])[C@@H]1O [Streptomycin] | >27.5 R μmol · l^−1 | >27.5 R | >27.5 R μmol · l^−1 | >27.5 R | >27.5 R μmol · l^−1 | >27.5 R | >27.5 R μmol · l^−1 | >27.5 R | >27.5 R μmol · l^−1 | >27.5 R | 27.5 R μmol · l^−1 | 27.5 R | 13.7 R μmol · l^−1 | 13.7 R | – | – | – | – | – | – | –
CC(C)/N=c1\cc2n(-c3ccc(Cl)cc3)c3ccccc3nc-2cc1Nc1ccc(Cl)cc1 [Clofazimin] | 0.13 C μmol · l^−1 | 0.13 C | 0.26 C μmol · l^−1 | 0.26 C | 0.13 C μmol · l^−1 | 0.13 C | 2.11 R μmol · l^−1 | 2.11 R | 0.53 R μmol · l^−1 | 0.53 R | 0.06 C μmol · l^−1 | 0.06 C | 0.53 R μmol · l^−1 | 0.53 R | – | – | – | – | – | – | –
COc1ccc(-c2noc(SCc3cc([N+](=O)[O-])cc([N+](=O)[O-])c3)n2)cc1 [Compound 3] | – | – | – | – | – | – | – | – | – | – | – | – | – | – | 0.5 (≈ 0.194 µg/mL) | 0.5 (≈ 0.194 µg/mL) | 0.5 (≈ 0.194 µg/mL) | 0.5 (≈ 0.194 µg/mL) | 0.5 (≈ 0.194 µg/mL) | 0.5 (≈ 0.194 µg/mL) | MIC [7]: 1 µM (≈ 0.388 µg/mL)
O=[N+]([O-])c1cc(CSc2nc(-c3ccc(F)cc3)no2)cc([N+](=O)[O-])c1 [Compound 8] | – | – | – | – | – | – | – | – | – | – | – | – | – | – | 0.5 (≈ 0.188 µg/mL) | 0.5 (≈ 0.188 µg/mL) | 0.5 (≈ 0.188 µg/mL) | 0.5 (≈ 0.188 µg/mL) | 0.5 (≈ 0.188 µg/mL) | 0.5 (≈ 0.188 µg/mL) | MIC [7]: 0.5 µM (≈ 0.188 µg/mL)
CC1COc2c(N3CCN(C)CC3)c(F)cc3c(=O)c(C(=O)O)cn1c23 (stereo not drawn) [Ofloxacin] | 2.75 C μmol · l^−1 | 2.75 C | 22.2 R μmol · l^−1 | 22.2 R | 11.1 R μmol · l^−1 | 11.1 R | 11.1 R μmol · l^−1 | 11.1 R | >22.2 R μmol · l^−1 | >22.2 R | 0.69 C μmol · l^−1 | 0.69 C | 1.38 C μmol · l^−1 | 1.38 C | – | – | – | – | – | – | –
O=[N+]([O-])c1cc(CSc2nc(-c3ccc(Br)cc3)no2)cc([N+](=O)[O-])c1 [Compound 9] | – | – | – | – | – | – | – | – | – | – | – | – | – | – | 0.5 (≈ 0.219 µg/mL) | 1 (≈ 0.437 µg/mL) | 1 (≈ 0.437 µg/mL) | 0.5 (≈ 0.219 µg/mL) | 0.5 (≈ 0.219 µg/mL) | 0.5 (≈ 0.219 µg/mL) | MIC [7]: 0.5 µM (≈ 0.219 µg/mL)
